Legend:
[1] = Ionisation constant (pKa); type: physicochemical
[2] = pH 7.4
clinical = details: human, in vivo, iv
in vitro [3] = assay: in vitro
in vitro [4] = details: human, plasma

For `CC(=O)Nc1ccc(O)cc1` [ACETAMINOPHEN], the pKa [1] was “Not Active”, the Fraction ionised [2] was 0 and the Vd (clinical) was 0.95 L/kg. The chromatographic logD (physchem) was 0.38, the fraction unbound (in vitro [3]; tissues) was 0.503 and the fraction unbound (in vitro [4]) was 1.
In the case of `Oc1ncnc2[nH]ncc12` [ALLOPURINOL], the pKa [1] is reported as “Not Active”, the Fraction ionised [2] is reported as 0 and the Vd (clinical) is reported as 0.6 L/kg. It also gave a fraction unbound (in vitro [3]; tissues) of 0.881 and a fraction unbound (in vitro [4]) of 0.95.
For `CN1CCCC(n2nc(Cc3ccc(Cl)cc3)c3ccccc3c2=O)CC1` (stereo not given) [AZELASTINE], the pKa [1] was 9.54, the Fraction ionised [2] was 0.993 and the Vd (clinical) was 15 L/kg. The chromatographic logD (physchem) was 1.93, the fraction unbound (in vitro [3]; tissues) was 0.004 and the fraction unbound (in vitro [4]) was 0.17.
In the case of `O=C1CN=C(c2ccccn2)c2cc(Br)ccc2N1` [BROMAZEPAM], the pKa [1] is reported as “Not Active”, the Fraction ionised [2] is reported as 0 and the Vd (clinical) is reported as 0.91 L/kg. It also gave a fraction unbound (in vitro [3]; tissues) of 0.146 and a fraction unbound (in vitro [4]) of 0.3.
Work on `CN/C(=N/CCSCc1nc[nH]c1C)NC#N` [CIMETIDINE] yielded a pKa [1] of 6.97, a Fraction ionised [2] of 0.271 and a Vd (clinical) of 1 L/kg. It also gave a fraction unbound (in vitro [3]) of 0.374 and a fraction unbound (in vitro [4]) of 0.81.
`COc1cc2c(c(OC)c1OC)-c1ccc(OC)c(=O)cc1[C@@H](NC(C)=O)CC2` [COLCHICINE] gave a Fraction ionised [2] of 0, a Vd (clinical) of 4.2 L/kg and a chromatographic logD (physchem) of 0.9.
For `CCCCCc1cc(O)c2c(c1)OC(C)(C)[C@@H]1CCC(C)=C[C@@H]21` [DRONABINOL], the Fraction ionised [2] was 0, the Vd (clinical) was 9.8 L/kg and the chromatographic logD (physchem) was 6.8. For the same compound, the fraction unbound (in vitro [3]; tissues) was 0.001 and the fraction unbound (in vitro [4]) was 0.03.
For `CN1C[C@H](C(=O)N[C@]2(C)O[C@@]3(O)[C@@H]4CCCN4C(=O)[C@H](Cc4ccccc4)N3C2=O)C=C2c3cccc4[nH]cc(c34)C[C@H]21` [ERGOTAMINE], the Fraction ionised [2] was 0.074, the Vd (clinical) was 2.7 L/kg and the chromatographic logD (physchem) was 4.3. For the same compound, the fraction unbound (in vitro [3]; tissues) was 0.003 and the fraction unbound (in vitro [4]) was 0.02.
`CCOC(=O)C1=C(C)NC(C)=C(C(=O)OC)C1c1cccc(Cl)c1Cl` (stereo not given) [FELODIPINE] showed a Fraction ionised [2] of 0 and a chromatographic logD (physchem) of 4.52.
With `CCC(C)n1ncn(-c2ccc(N3CCN(c4ccc(OCC5COC(Cn6cncn6)(c6ccc(Cl)cc6Cl)O5)cc4)CC3)cc2)c1=O` (stereo not given) [ITRACONAZOLE] the pKa [1] was “Not Active”, the Fraction ionised [2] was 0 and the Vd (clinical) was 3.9 L/kg. For the same compound, the chromatographic logD (physchem) was 5.79 and the fraction unbound (in vitro [4]) was 0.028.
In the case of `Cc1ncc([N+](=O)[O-])n1CCO` [METRONIDAZOLE], the pKa [1] is reported as “Not Active”, the Fraction ionised [2] is reported as 0 and the Vd (clinical) is reported as 0.74 L/kg. For the same compound, the fraction unbound (in vitro [3]; tissues) was 0.609 and the fraction unbound (in vitro [4]) was 0.89.
`CCc1nn(CCCN2CCN(c3cccc(Cl)c3)CC2)c(=O)n1CCOc1ccccc1` [NEFAZODONE] showed a pKa [1] of 6.79, a Fraction ionised [2] of 0.197 and a Vd (clinical) of 0.51 L/kg. It also gave a chromatographic logD (physchem) of 4.83 and a fraction unbound (in vitro [3]; tissues) of 0.008.
Work on `CN1CCC[C@H]1c1cccnc1` [NICOTINE] yielded a Fraction ionised [2] of 0.834, a Vd (clinical) of 2.6 L/kg and a chromatographic logD (physchem) of 0.23. For the same compound, the fraction unbound (in vitro [3]) was 0.15.
`CN/C(=C\[N+](=O)[O-])NCCSCc1csc(CN(C)C)n1` [NIZATIDINE] showed a pKa [1] of 6.59, a Fraction ionised [2] of 0.134 and a Vd (clinical) of 1.2 L/kg. For the same compound, the fraction unbound (in vitro [3]; tissues) was 0.0289 and the fraction unbound (in vitro [4]) was 0.78.
For `CC(=O)O[C@H]1C(=O)[C@@]2(C)[C@H]([C@H](OC(=O)c3ccccc3)[C@]3(O)C[C@H](OC(=O)[C@H](O)[C@@H](NC(=O)c4ccccc4)c4ccccc4)C(C)=C1C3(C)C)[C@]1(OC(C)=O)CO[C@@H]1C[C@@H]2O` [PACLITAXEL], the Fraction ionised [2] was 0, the Vd (clinical) was 2.4 L/kg and the chromatographic logD (physchem) was 4.45. The fraction unbound (in vitro [3]) was 0.005 and the fraction unbound (in vitro [4]) was 0.03.
For `CCN(CC)CCCC(C)Nc1c2ccc(Cl)cc2nc2ccc(OC)cc12` (stereo not given) [QUINACRINE], the pKa [1] was 10.2, the Vd (clinical) was 223 L/kg and the chromatographic logD (physchem) was 1.1. The fraction unbound (in vitro [4]) was 0.103.
`C#CCCCC(=O)c1cc(C(C)(C)C)c(O)c(C(C)(C)C)c1` [TEBUFELONE] gave a Fraction ionised [2] of 0, a Vd (clinical) of 31 L/kg and a chromatographic logD (physchem) of 5.56. It also gave a fraction unbound (in vitro [3]; tissues) of 8e-06 and a fraction unbound (in vitro [4]) of 0.00067.
`Cc1ccc(O)c([C@H](CCN(C(C)C)C(C)C)c2ccccc2)c1` [TOLTERODINE] gave a pKa [1] of 9.87, a Fraction ionised [2] of 0.997 and a Vd (clinical) of 1.3 L/kg. For the same compound, the chromatographic logD (physchem) was 1.04 and the fraction unbound (in vitro [3]; tissues) was 0.012.
With `O=c1n(CCCN2CCN(c3cccc(Cl)c3)CC2)nc2ccccn12` [TRAZODONE] the pKa [1] was 6.79, the Fraction ionised [2] was 0.197 and the Vd (clinical) was 1 L/kg. The fraction unbound (in vitro [3]; tissues) was 0.03 and the fraction unbound (in vitro [4]) was 0.07.
